Measurements published in paper PMC6502747, “Preclinical toxicology and safety pharmacology of the first-in-class GADD45β/MKK7 inhibitor and clinical candidate, DTP3” (Toxicology Reports, 2019).
Like-named read-outs stand apart in the source and are kept apart here.

What was measured:
CYP2C8 = CYP2C8 (Homo sapiens, UniProt P10632); conditions: read-out: CYP2C8 IC50
Source text: investigated in vitro, using time-dependent inhibition and catalytic induction assays
conducted at Cyprotex laboratories in accordance with in-house SOP

[1] = tested on: Sigma receptors (non-selective); assay: Sigma receptor functional assay (agonistic/antagonistic effect); assay type: biochemical
Source text: SUPPLEMENTARY FIGURE LEGENDS
Supplementary Figure 1 – Related to Figure 1. […]
Values represent the mean
percentage of variation of the response to the reference Sigma-receptor ligand in the
in the absence of any other agents. […]

HepG2 cells = assay: multi-parametric cytotoxicity assay (HCS); assay type: cell-based, human
Method: assessment/genetic-toxicology/regulatory-assays.html). Briefly, the numbers of revertant colonies for each of five histidine-requiring strains of Salmonella […]
different classes of genetically active compounds, were evaluated either in the presence or absence of metabolic activation by Aroclor 1254-induced rat liver post-mitochondrial S9 fraction (Supplementary Figure 2B). DTP3 was tested at the […]
expressed as the mean fold increase in colony number for each tester strain upon exposure to DTP3 or strain-specific control compounds (CTR) relative to exposure to vehicle control, either in the presence or absence of metabolic activation (Supplementary Figure 2C). The following significance thresholds were applied to each strain: ≥1.5 folds, strain TA102; ≥2-fold, strains TA98 and TA100; ≥3-fold, […]
(http://www.cyprotex.com/toxicology/multiparametric/cytotoxicity-screening-panel), using High Content Screening (HCS). […]
were treated with a specific dye or antibody, as required by the assay. Plates were then scanned using an ArrayScan VTI automated fluorescence cell imager (Thermo Scientific Cellomics) and analysed for the following measures of toxicity: nuclear size and nuclear morphology, cell membrane permeability, mitochondrial mass, mitochondrial membrane potential (DYm), and cytochrome c release (Figure 2). […]
each compound, cytotoxicity was scored by assessing the minimum effective concentration (MEC) inducing a significant effect relative to vehicle control. […]
and positive controls, respectively. Briefly, upon formation of a stable Gigaohm (GΩ) seal between patch electrodes and individual hERG-expressing HEK-293 cells, hERG-dependent outward tail currents were measured following depolarisation of the cell membrane to […] for 2 s (activation of channels) from a holding potential of - 80 mV, and following subsequent repolarisation to -40 mV, for 3 s. […]
. Electrophysiological measurements were recorded using PatchMaster software (Version v2x73_2). […] The amount of current block was calculated as the percentage of control current. […]

[2] = rat plasma
Method: Pooled plasma and faeces samples were prepared for metabolite profiling and
identification by sequential extraction with acetonitrile. Pooled urine samples were
centrifuged to remove particulate material. For each sample, metabolite profiles
were generated using radio-HPLC. On-line radio-detection was used for urine and
faeces, whereas off-line radio-detection was used for plasma, due to the low
radioactivity levels present in plasma samples. Selected samples were further
analysed by high resolution LC-MS(/MS) in order to characterise the most notable
Results were expressed as the mean of the indicated number of samples. The
statistical error was calculated as either standard deviation (SD) or standard error of
the mean (SEM), as indicated, according to the typology of the experiments.

Sequence of CYP2C8 (P10632 whole entry): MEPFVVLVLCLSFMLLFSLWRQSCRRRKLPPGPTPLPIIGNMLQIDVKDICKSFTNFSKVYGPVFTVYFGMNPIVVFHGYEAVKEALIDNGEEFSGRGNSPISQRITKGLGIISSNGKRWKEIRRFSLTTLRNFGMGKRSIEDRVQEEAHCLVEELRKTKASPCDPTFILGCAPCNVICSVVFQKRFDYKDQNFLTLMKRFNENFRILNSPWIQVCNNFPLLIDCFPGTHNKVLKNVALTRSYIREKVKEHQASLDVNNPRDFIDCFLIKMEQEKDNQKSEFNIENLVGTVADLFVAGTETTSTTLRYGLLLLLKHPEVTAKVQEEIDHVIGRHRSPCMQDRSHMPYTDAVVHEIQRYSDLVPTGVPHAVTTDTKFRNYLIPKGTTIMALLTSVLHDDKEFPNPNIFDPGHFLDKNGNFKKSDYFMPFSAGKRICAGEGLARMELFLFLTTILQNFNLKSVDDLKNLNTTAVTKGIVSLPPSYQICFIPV

Compound: Cc1ccc(C)c(OCCCC(C)(C)C(=O)O[C@@H]2O[C@H](C(=O)O)[C@@H](O)[C@H](O)[C@H]2O)c1 [gemfibrozilglucuronide]
- IC50 (CYP2C8; 0 min): 30.9 µM
- IC50 (CYP2C8; 30 min, + NADPH): 5.84 µM
- IC50 (CYP2C8; 30 min, - NADPH): 30.3 µM

Compound: C[C@@H]1CN(CCCn2c3ccccc3c3ccccc32)C[C@H](C)N1 [Rimcazole, rimcazole]
- Antagonistic Effect, Response ([1]; [Drug] 1.0E-0.5 M): -6 % of ligand binding
- Antagonistic Effect, Response ([1]; [Drug] 1.0E-0.6 M): 84 % of ligand binding
- Antagonistic Effect, Response ([1]; [Drug] 3.0E-0.6 M): 49 % of ligand binding

Compound: CN(C)CCCN1c2ccccc2Sc2ccc(Cl)cc21 [Chlorpromazine, chlorpromazine]
- MEC Cell membrane permeability (HepG2 cells): 1.12 µM
- MEC Cytochrome C release (HepG2 cells; human, 72 h): 1.30 µM
- MEC Mitochondrial membrane potential (HepG2 cells; human, 72 h): 4.70 µM

Compound: methoxy-DTP3 [P7 (methoxy DTP3)]
- radio-labelled species in plasma profile ([2]; 10 m): 0.8
- radio-labelled species in plasma profile ([2]; 1 hr): 0.8

Compound: (+) SKF-10,047
- Agonistic Effect, Response [1]: 48 % of ligand binding
- Agonistic Effect, Response ([1]; [Drug] 1.0E-0.5 M): 17 % of ligand binding
